Reference: publication PMC3690538, “Structure of Rhomboid Protease in Complex with β-Lactam Inhibitors Defines the S2′ Cavity” (Structure(London, England:1993), 2013)

Target: T1, GlpG (Escherichia coli, UniProt P09391)
T1 construct: purified intramembrane serine protease in detergent
T1 sequence (P09391 1-276): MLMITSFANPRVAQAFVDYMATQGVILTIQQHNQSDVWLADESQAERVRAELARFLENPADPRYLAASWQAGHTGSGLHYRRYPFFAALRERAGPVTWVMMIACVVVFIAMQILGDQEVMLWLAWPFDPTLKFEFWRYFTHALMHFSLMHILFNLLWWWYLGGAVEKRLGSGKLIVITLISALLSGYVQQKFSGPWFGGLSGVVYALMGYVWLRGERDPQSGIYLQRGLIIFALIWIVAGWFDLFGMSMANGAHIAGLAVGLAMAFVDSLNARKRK
Assay: gel-based substrate cleavage, SDS-PAGE densitometry, four-parameter fit
Format: biochemical

SMILES: O=C1CC(c2ccccc2)N1C(=O)Oc1ccccc1 (racemic) [L29]
- IC50: 1.12 ± 0.05 µM

SMILES: CC(C)COC(=O)N1C(=O)CC1c1ccccc1 (racemic) [L61]
- IC50: 11.7 ± 0.75 µM

SMILES: O=C1CC(c2ccccc2)N1C(=O)OC1CCCC1 (racemic) [L62]
- IC50: 5.27 ± 0.08 µM

SMILES: O=C1CC(c2ccccc2)N1C(=O)OCc1ccccc1 (centres unmarked) [L59]
- IC50: 0.728 ± 0.06 µM

SMILES: O=C1CC(c2ccccc2)N1C(=O)Oc1ccc(Cl)cc1 (centres unmarked) [L60]
- IC50: 1.09 ± 0.03 µM
